From patent US8674103B2, “Lyotropic liquid crystal systems based on aromatic tetracarboxylic bisbenzoimidazole derivatives and methods for making” (Nitto Denko Corporation, priority 2009, dated 2014)

Assay: Measurement of dichroic ratios of coated films by polarized absorbance spectra
Type: physicochemical
Experimental: Gardner Co. Inc.) at a linear velocity of 25 mm/s. The resulting film thickness was approximately 0.2 μm. The process was conducted at room temperature (˜20° C.) and relative humidity of 65% after the film was dried under the same condition. […] The dichroic ratio […] was equal to about 23 at about 500 nm. […] Gardner Co. Inc.) at a linear velocity of 25 mm/s. The resulting film thickness was approximately 200 nm. The process was conducted at room temperature (˜20° C.) and relative humidity of 65% after the film was dried under the same condition. The film was characterized by absorbance spectra measured on a spectrophotometer in a wavelength range from 380 to 780 nm using a light beam polarized along the direction of the film application (Apar) and the direction perpendicular to that (Aper).

Compound: O=C(NCCOCCOCCCS(=O)(=O)O)c1ccc2c(c1)nc1c3ccc4c5ccc6c7c(ccc(c8ccc(c(=O)n21)c3c84)c57)c(=O)n1c2cc(C(=O)NCCOCCOCCCS(=O)(=O)O)ccc2nc61 [Compound 1]
- dichroic ratio Kd=log(Apar)/log(Aper) (Sample 1: 12 wt % solution titrated with triethylamine to pH 7, film approx. 0.2 μm, at about 500 nm): about 23
- λmax (Table 1, LLC chromophores): 500 nm
- Dichroic ratio (Table 1, at λmax): 23

Compound: O=C(NCCN1CCCC1)c1ccc2nc3c4ccc5c(=O)n6c7cc(C(=O)NCCN8CCCC8)ccc7nc6c6ccc(c(=O)n3c2c1)c4c56 [Compound 17d]
- dichroic ratio (Kd) (Sample 11: 25 wt % solution in water, film approx. 200 nm, at about 470 nm): about 4

Compound: O=C(NCCN(CCCS(=O)(=O)O)CCCS(=O)(=O)O)c1ccc2c(c1)nc1c3ccc4c5ccc6c7c(ccc(c8ccc(c(=O)n21)c3c84)c57)c(=O)n1c2cc(C(=O)NCCN(CCCS(=O)(=O)O)CCCS(=O)(=O)O)ccc2nc61 [Compound 3]
- dichroic ratio (Kd) (Sample 3: 15 wt % solution titrated with LiOH to pH 7, film approx. 0.2 μm, at about 500 nm): about 17

Compound: O=C(NCCS(=O)(=O)[O-])c1ccc2nc3c4ccc5c(=O)n6c7cc(C(=O)NCCS(=O)(=O)[O-])ccc7nc6c6ccc(c(=O)n3c2c1)c4c56.[K+].[K+] [Compound 7]
- dichroic ratio (Kd) (Sample 6: 8 wt % solution titrated with KOH to pH 7, film approx. 0.2, at about 450 nm): about 8

Compound: O=C(NCCCS(=O)(=O)[O-])c1ccc2nc3n(c2c1)Cc1ccc2c4c1c-3ccc4c(=O)n1c3cc(C(=O)NCCCS(=O)(=O)[O-])ccc3nc21.[Li+].[Li+] [Compound 8]
- dichroic ratio (Kd) (Sample 7: 8 wt % solution titrated with LiOH to pH 7, film approx. 0.2 μm, at about 450 nm): about 10

Compound: O=C(NCCOCCS(=O)(=O)O)c1ccc2c(c1)nc1c3ccc4c5ccc6c7c(ccc(c8ccc(c(=O)n21)c3c84)c57)c(=O)n1c2cc(C(=O)NCCOCCS(=O)(=O)O)ccc2nc61 [Compound 2]
- dichroic ratio (Kd) (Sample 2: 8 wt % solution titrated with LiOH to pH 7, film approx. 0.2, at about 500 nm): about 11
